What follows are compounds tested against T1, MAGL (recombinant wild-type) (Homo sapiens, UniProt Q99685) (assay: 4-NPA assay: MAGL inhibitory activity by hydrolysis of 4-nitrophenylacetate, absorbance at 405 nm). Details: 4-NPA assay (values without footnote [a]).
T1 sequence (Q99685 1-303): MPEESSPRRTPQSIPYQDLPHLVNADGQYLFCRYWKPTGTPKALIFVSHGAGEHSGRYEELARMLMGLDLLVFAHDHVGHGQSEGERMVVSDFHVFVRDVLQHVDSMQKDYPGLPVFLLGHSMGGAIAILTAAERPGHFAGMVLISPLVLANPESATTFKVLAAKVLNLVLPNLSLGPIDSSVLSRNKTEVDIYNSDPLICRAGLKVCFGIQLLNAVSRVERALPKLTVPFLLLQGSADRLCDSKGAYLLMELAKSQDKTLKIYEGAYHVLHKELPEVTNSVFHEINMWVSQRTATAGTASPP
Type: biochemical
Outline: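 Compound (final 25 μM to 1.7 nM, 3-fold steps) was preincubated 15 min at RT with 1 nM MAGL in 50 mM Tris, 1 mM EDTA, then 300 μM 4-nitrophenylacetate was added. A405 was read after 5 min and again 80 min later at RT, and activity was taken as the difference between the two reads.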

| IC50 [nM] | SMILES |
| --- | --- |
| 0.43 | O=C1COc2ccc(C(=O)N3CCC([C@H](c4ccccc4)c4cccc(F)c4)CC3)cc2N1 [Example 75, 6-[4-[(R)-(3-fluorophenyl)-phenyl-methyl]piperidine-1-carbonyl]-4H-1,4-benzoxazin-3-one] |
| 0.53 | O=C1COc2ccc(C(=O)N3CCC([C@H](c4ccc(F)cc4)c4cccc(OCCF)c4)CC3)cc2N1 [Example 76, 6-[4-[(R)-[3-(2-fluoroethoxy)phenyl]-(4-fluorophenyl)methyl]piperidine-1-carbonyl]-4H-1,4-benzoxazin-3-one] |
| 1.66 | O=C1COc2ccc(C(=O)N3CCC([C@@H](c4ccc(F)cc4)c4cccc(OCCF)c4)CC3)cc2N1 [Example 77, 6-[4-[(S)-[3-(2-fluoroethoxy)phenyl]-(4-fluorophenyl)methyl]piperidine-1-carbonyl]-4H-1,4-benzoxazin-3-one] |
| 1.84 | O=C1COc2ccc(C(=O)N3CCC(C(c4ccccc4)c4cccnc4F)CC3)cc2N1 (centres unmarked) [Example 78, 6-[4-[(2-fluoro-3-pyridyl)-phenyl-methyl]piperidine-1-carbonyl]-4H-1,4-benzoxazin-3-one] |
| 6 | O=C1COc2ccc(C(=O)N3CCC([C@H](c4ccccc4)c4ccc(OCCF)cc4)CC3)cc2N1 [Example 79, 6-[4-[(R)-[4-(2-fluoroethoxy)phenyl]-phenyl-methyl]piperidine-1-carbonyl]-4H-1,4-benzoxazin-3-one] |
| 0.3 | O=C1COc2ccc(C(=O)N3CCC([C@@H](c4ccccc4)c4ccc(OCCF)cc4)CC3)cc2N1 [Example 80, 6-[4-[(S)-[4-(2-fluoroethoxy)phenyl]-phenyl-methyl]piperidine-1-carbonyl]-4H-1,4-benzoxazin-3-one] |
| 1.1 | O=C1COc2ccc(C(=O)N3CCC([C@@H](c4ccccc4)c4cccc(OCCF)c4)CC3)cc2N1 [Example 81, 6-[4-[(S)-[3-(2-fluoroethoxy)phenyl]-phenyl-methyl]piperidine-1-carbonyl]-4H-1,4-benzoxazin-3-one] |
| 0.69 | O=C1COc2ccc(C(=O)N3CCC(C(c4ccccc4)c4cccc(F)c4)CC3)cc2N1 (centres unmarked) [Example 82, 6-[4-[(3-fluorophenyl)-phenyl-methyl]piperidine-1-carbonyl]-4H-1,4-benzoxazin-3-one] |
| 3.09 | O=C1COc2ccc(C(=O)N3CCN(C(c4ccccc4)c4ccccc4)CC3)cc2N1 [Example 83, 6-(4-benzhydrylpiperazine-1-carbonyl)-4H-1,4-benzoxazin-3-one] |
| 5.83 | O=C1COc2ccc(C(=O)N3CCN(C(c4ccc(F)cc4)c4ccc(F)cc4)CC3)cc2N1 [Example 84, 6-[4-[bis(4-fluorophenyl)methyl]piperazine-1-carbonyl]-4H-1,4-benzoxazin-3-one] |
| 497 | O=C1COc2ccc(C(=O)N3CCN(c4ccc(Cl)c(C(F)(F)F)c4)CC3)cc2N1 [Example 85, 6-[4-[4-chloro-3-(trifluoromethyl)phenyl]piperazine-1-carbonyl]-4H-1,4-benzoxazin-3-one] |
| 612 | O=C1COc2ccc(C(=O)N3CCN(c4ccc(Cl)c(Cl)c4)CC3)cc2N1 [Example 86, 6-[4-(3,4-dichlorophenyl)piperazine-1-carbonyl]-4H-1,4-benzoxazin-3-one] |
| 1320 | O=C1COc2ccc(C(=O)N3CCN(c4cc(Cl)cc(Cl)c4)CC3)cc2N1 [Example 87, 6-[4-(3,5-dichlorophenyl)piperazine-1-carbonyl]-4H-1,4-benzoxazin-3-one] |
| 1480 | O=C1COc2ccc(C(=O)N3CCN(c4cc(C(F)(F)F)ccn4)CC3)cc2N1 [Example 88, 6-[4-[4-(trifluoromethyl)-2-pyridyl]piperazine-1-carbonyl]-4H-1,4-benzoxazin-3-one] |
| 1900 | COc1cc(OC)cc(N2CCN(C(=O)c3ccc4c(c3)NC(=O)CO4)CC2)c1 [Example 89, 6-[4-(3,5-dimethoxyphenyl)piperazine-1-carbonyl]-4H-1,4-benzoxazin-3-one] |
| 2220 | O=C1COc2ccc(C(=O)N3CCN(c4ccc(C(F)(F)F)cn4)CC3)cc2N1 [Example 90, 6-[4-[5-(trifluoromethyl)-2-pyridyl]piperazine-1-carbonyl]-4H-1,4-benzoxazin-3-one] |
| 2400 | O=C1COc2ccc(C(=O)N3CCN(c4nsc5ccccc45)CC3)cc2N1 [Example 91, 6-[4-(1,2-benzothiazol-3-yl)piperazine-1-carbonyl]-4H-1,4-benzoxazin-3-one] |
| 2740 | COc1cc(N2CCN(C(=O)c3ccc4c(c3)NC(=O)CO4)CC2)cc(OC)c1OC [Example 92, 6-[4-(3,4,5-trimethoxyphenyl)piperazine-1-carbonyl]-4H-1,4-benzoxazin-3-one] |
| 3.5 | O=C1COc2ccc(C(=O)N3CCC(=C(c4ccc(F)cc4)c4ccc(OCCF)cc4)CC3)cc2N1 [Example 93, 6-[4-[[4-(2-Fluoroethoxy)phenyl]-(4-fluorophenyl)methylene]piperidine-1-carbonyl]-4H-1,4-benzoxazin-3-one] |
| 6.4 | COc1cc(C(=O)N2CCC(C(c3ccc(F)cc3)c3ccc(F)cc3)CC2)cc2c1CCC(=O)N2 [Example 100, 7-[4-[Bis(4-fluorophenyl)methyl]piperidine-1-carbonyl]-5-methoxy-3,4-dihydro-1H-quinolin-2-one] |
| 2.7 | COc1cc(C(=O)N2CCC(C(c3ccccc3)c3ccccc3)CC2)cc2c1CCC(=O)N2 [Example 101, 7-(4-Benzhydrylpiperidine-1-carbonyl)-5-methoxy-3,4-dihydro-1H-quinolin-2-one] |
| 7.9 | O=C1CCc2c(cc(C(=O)N3CCC(C(c4ccc(F)cc4)c4ccc(F)cc4)CC3)cc2OCCF)N1 [Example 106, 7-[4-[Bis(4-fluorophenyl)methyl]piperidine-1-carbonyl]-5-(2-fluoroethoxy)-3,4-dihydro-1H-quinolin-2-one] |
| 6.2 | O=C1CCc2c(cc(C(=O)N3CCC(C(c4ccccc4)c4ccccc4)CC3)cc2OCCF)N1 [Example 109, 7-(4-Benzhydrylpiperidine-1-carbonyl)-5-(2-fluoroethoxy)-3,4-dihydro-1H-quinolin-2-one] |
| 802 | COc1ccc(C(c2ccccc2)C2CN(C(=O)c3ccc4c(c3)NC(=O)CO4)C2)cc1OC (centres unmarked) [Example 127, 6-[3-[(3,4-Dimethoxyphenyl)-phenyl-methyl]azetidine-1-carbonyl]-4H-1,4-benzoxazin-3-one] |

These compounds were tested against T2, MAGL (Homo sapiens, UniProt Q99685) (assay: 2-AG assay: MAGL inhibitory activity by hydrolysis of 2-arachidonoylglycerol to arachidonic acid, mass spectrometry). Details: 2-AG assay (values marked [a]).
T2 sequence (Q99685 1-303): T1 sequence (Q99685 1-303)
Type: biochemical
Experimental: Alternatively, compounds were profiled for MAGL inhibitory activity by determining the enzymatic activity by following the hydrolysis of the natural substrate, 2-arachidonoylglycerol, resulting in arachidonic acid, which can be followed by mass spectrometry. This assay is hereinafter abbreviated “2-AG assay”.
The 2-AG assay was carried out in 384 well assay plates (PP, Greiner Cat #784201) in a total volume of 20 μL. Compound dilutions were made in 100% DMSO (VWR Chemicals 23500.297) in a polypropylene plate in 3-fold dilution steps to give a final concentration range in the assay from 12.5 μM to […]. 0.25 μL compound dilutions (100% DMSO) were added to 9 μL MAGL in assay buffer (50 mM TRIS (GIBCO, 15567-027), 1 mM EDTA (Fluka, 03690-100 ml), 0.01% (v/v) Tween. After shaking, the plate was incubated for 15 min at RT. To start the reaction, 10 μL 2-arachidonoylglycerol in assay buffer was added. The final concentrations in the assay was […] and 8 μM 2-arachidonoylglyerol. After shaking and 30 min incubation at RT, the reaction was quenched by the addition of 40 μL of acetonitrile containing 4 μM of d8-arachidonic acid. The amount of arachidonic acid was traced by an online SPE system (Agilent Rapidfire) coupled to a triple quadrupole mass spectrometer (Agilent 6460). A C18 SPE cartridge (G9205A) was used in an acetonitrile/water liquid setup. The mass spectrometer was operated in negative electrospray mode following the mass transitions 303.1→259.1 for arachidonic acid and 311.1→267.0 for d8-arachidonic acid. The activity of the compounds was calculated based on the ratio of intensities [arachidonic acid/d8-arachidonic acid].

| IC50 [nM] | SMILES |
| --- | --- |
| 0.27 | CS(=O)(=O)c1ccc(C(c2ccccc2)C2CCN(C(=O)c3ccc4c(c3)NC(=O)CO4)CC2)cc1 (single isomer, unassigned) [Example 132, 6-[4-[(S or R)-(4-Methylsulfonylphenyl)-phenyl-methyl]piperidine-1-carbonyl]-4H-1,4-benzoxazin-3-one] |
| 25.1 | CS(=O)(=O)c1ccc(C(c2ccccc2)C2CCN(C(=O)c3ccc4c(c3)NC(=O)CO4)CC2)cc1 (single isomer, unassigned) [Example 133, 6-[4-[(R or S)-(4-Methylsulfonylphenyl)-phenyl-methyl]piperidine-1-carbonyl]-4H-1,4-benzoxazin-3-one] |
| 0.11 | COc1ccc(C(c2ccccc2)C2CCN(C(=O)c3ccc4c(c3)NC(=O)CO4)CC2)cc1OCCF (single isomer, unassigned) [Example 134, 6-[4-[(S or R)-3-(2-Fluoroethoxy)-4-methoxy-phenyl-phenyl-methyl]piperidine-1-carbonyl]-4H-1,4-benzoxazin-3-one] |
| 4.16 | COc1ccc(C(c2ccccc2)C2CCN(C(=O)c3ccc4c(c3)NC(=O)CO4)CC2)cc1OCCF (single isomer, unassigned) [Example 135, 6-[4-[(R or S)-[3-(2-Fluoroethoxy)-4-methoxy-phenyl]-phenyl-methyl]piperidine-1-carbonyl]-4H-1,4-benzoxazin-3-one] |
| 0.24 | COc1cc(C(c2ccccc2)C2CCN(C(=O)c3ccc4c(c3)NC(=O)CO4)CC2)ccn1 (single isomer, unassigned) [Example 137, 6-[4-[(R or S)-(2-Methoxy-4-pyridyl)-phenyl-methyl]piperidine-1-carbonyl]-4H-1,4-benzoxazin-3-one] |

— US11420961B2, “Heterocyclic compounds” (Hoffmann-La Roche Inc., priority 2017, dated 2022)
